Source: patent publication US5130253A, “DNAs Encoding mosquito oostatic hormones” (University of Florida, priority 1991, dated 1992)
Where no end group is shown, it is not given here.

Legend:
Aedes aegypti [1] = assay: Inhibition of egg (ovarian) development after injection into blood-fed females; format: in vivo; conditions: for Inhibition of egg development / Yolk length: 24 hours; for Effect compared with natural, purified oostatic hormone: injection
Protocol: (§1) Female insects were injected with 0.5 μl to 1.0 μl hormone solution
(§2) of analog 1 or saline and analyzed 24 hours later for egg development.
(§3) The insects were evaluated for the effect of oostatic hormone 24 hours after injecting the hormone by dissecting out the ovaries and measuring the yolk in each follicle, or by dissecting out the midgut and determining trypsin biosynthesis as was described by Borovsky, D. (1988), Arch. Insect Biochem. Physiol. 8:249-260. We believe that we have discovered an effective method that can interfere with the biosynthesis of serine esterases (trypsinlike or chymotrypsinlike enzymes) in the midgut of insects.
(§4) (a) Female Aedes aegypti were fed blood on a chicken, lightly anesthetized with ether, and immediately injected with different concentrations (1 to 5 μg; 0.25 to 0.5 μl) of synthetic analogs of oostatic hormone (1 and 2). […] Twenty-four hours after the injection of oostatic hormone analogs, or water as a control, egg development and trypsinlike enzyme biosynthesis was determined (Borovsky, D. (1988), Arch, Ins. Biochem. Physiol. 7:187-210). (See Table 2)
Groups of female Aedes aegypti were injected with 0.5 to 0.25 μl of
oostatic hormone analogs, or with 0.5 μl of water as control.

Aedes aegypti [2] = assay: Toxicity (mortality) of injected mosquitoes; format: in vivo; conditions: 1 to 5 μg injected in 0.25 to 0.5 μl
Protocol: as §4

houseflies = assay: Topical application in DMSO; format: in vivo; conditions: 10 to 20 μg topically in 1 to 10 μl of DMSO; 24 hours after treatment
Protocol: (§5) (b) Another procedure was to dissolve oostatic hormone analogs (1) or (2) in a solvent that might facilitate transport through the cuticular barrier into hemolymph. Dimethylsulfoxide was used and 10 to 20 μg of (1) or (2) was applied topically to houseflies and stableflies in 1 to 10 μl of DMSO.

stableflies = assay: Topical application in DMSO; format: in vivo; conditions: 10 to 20 μg topically in 1 to 10 μl of DMSO; 24 hours after treatment
Protocol: as §5

[3] = test system: trypsinlike enzymes biosynthesis; assay: Inhibition of trypsin synthesis after injection; format: in vivo, Lutzomyia anthophora; conditions: 0.477 nmol injected; 24 hours later
Protocol: as §1, §2, §3

[4] = test system: trypsinlike enzymes biosynthesis; assay: Inhibition of trypsin synthesis after injection; format: in vivo, Stomoxys calcitrans; conditions: 4.77 nmol injected; 24 hours later
Protocol: as §1, §2, §3

[5] = format: in vitro ADME, mosquito
Source text: The structure of these peptides render them undigestible with known endopeptidases (i.e. proteolytic enzymes like trypsin, pronase, etc.). The peptides were not affected by 1% trifluoroacetic acid and were routinely purified using this acid on HPLC. DNA sequences encoding the peptides of the invention can be used as probes to locate the genes expressing these peptides.

[6] = test system: trypsinlike enzymes biosynthesis; assay: Inhibition of trypsin synthesis after injection; format: in vivo, Musca domestica; conditions: 4.77 nmol injected; 24 hours later
Protocol: as §1, §2, §3

[7] = test system: trypsinlike enzymes biosynthesis; assay: Inhibition of trypsinlike enzyme biosynthesis in the midgut after injection; format: in vivo, Aedes aegypti; conditions: 2.86 nmol injected; 24 hours later
Protocol: as §1, §2, §3, §4

Anopheles albimanus = assay: Inhibition of ovarian development after injection; format: in vivo; conditions: 1.83 nmol injected; 24 hours later
Protocol: as §1, §2, §3

Culex quinquefasciatus = assay: Inhibition of ovarian development after injection; format: in vivo; conditions: 3.6 nmol injected; 24 hours later
Protocol: as §1, §2, §3

Lutzomyia anthophora = assay: Inhibition of ovarian development after injection; format: in vivo; conditions: 0.477 nmol injected; 24 hours later
Protocol: as §1, §2, §3

[8] = test system: trypsinlike enzymes biosynthesis; assay: Inhibition of trypsin synthesis after injection; format: in vivo, Ctenocephalides felis (bouche); conditions: 0.477 nmol injected; 24 hours later
Protocol: as §1, §2, §3

Sequence: DYPAPPPPPP [analog 2, H2 NDYPAP6 COOH]
- Inhibition of egg development (Aedes aegypti [1]; 0.96 μg (0.92 nmol) injected): 62%
- Yolk length (Aedes aegypti [1]; 0.96 μg (0.92 nmol) injected): 102 ± 11 μm
- Inhibition of egg development (Aedes aegypti [1]; 1.92 μg (1.83 nmol) injected): 96%
- Yolk length (Aedes aegypti [1]; 1.92 μg (1.83 nmol) injected): 55 ± 11 μm
- Effect compared with natural, purified oostatic hormone (Aedes aegypti [1]): same effect as injection of natural, purified oostatic hormone
- Toxicity: death of injected mosquitoes (Aedes aegypti [2]): none of the injected mosquitoes died
- Activity (sterilization through inhibition of trypsin-like enzyme synthesis) (houseflies): Some evidence of activity
- Activity (sterilization through inhibition of trypsin-like enzyme synthesis) (stableflies): Some evidence of activity

Sequence: YDPAPPPPPP [analog 1, H2 NYDPAP6 COOH]
- Inhibition of trypsin synthesis [3]: 30%
- Inhibition of trypsin synthesis [4]: 50%
- Inhibition of ovarian development (Aedes aegypti [1]; 2.86 nmol injected, analyzed 24 hours later): 98%
- Inhibition of egg development (Aedes aegypti [1]; 1.20 μg (1.15 nmol) injected): 76%
- Yolk length (Aedes aegypti [1]; 1.20 μg (1.15 nmol) injected): 82 ± 3 μm
- Inhibition of egg development (Aedes aegypti [1]; 2.44 μg (2.33 nmol) injected): 98%
- Yolk length (Aedes aegypti [1]; 2.44 μg (2.33 nmol) injected): 53 ± 3 μm
- Effect compared with natural, purified oostatic hormone (Aedes aegypti [1]): same effect as injection of natural, purified oostatic hormone
- Loss of activity on standing in mosquito homogenate [5]: without loss of activity
- Inhibition of trypsin synthesis [6]: 85%
- Inhibition of trypsin synthesis [7]: 86%
- Toxicity: death of injected mosquitoes (Aedes aegypti [2]): none of the injected mosquitoes died
- Inhibition of ovarian development (Anopheles albimanus): 100%
- Inhibition of ovarian development (Culex quinquefasciatus): 91%
- Inhibition of ovarian development (Lutzomyia anthophora): 50%
- Activity (sterilization through inhibition of trypsin-like enzyme synthesis) (houseflies): Some evidence of activity
- Activity (sterilization through inhibition of trypsin-like enzyme synthesis) (stableflies): Some evidence of activity
- Inhibition of trypsin synthesis [8]: 50%
